Results on two molecules are retold here after patent US6803457B1, “Compounds for the treatment of ischemia” (Pfizer, Inc., priority 1999, dated 2004).

A word on the melting point: it is the temperature, or range, at which the solid turns liquid.

The structures appear in SMILES notation.

Regarding `CNC(=O)[C@H]1O[C@@H](n2cnc3c(NCc4cc(Cl)ccc4OCc4cccc(C)c4)ncnc32)[C@H](O)[C@@H]1N` [Example 14, (2S,3S,4R,5R)3-Amino-5-{6-[5-chloro-2-(3-methyl-benzyloxy)-benzylamino]-purin-9-yl}-4-hydroxytetrahydrofuran-2-carboxylic acid methylamide], the melting point lay in the range of 92 to 97 °C.

`CNC(=O)[C@H]1O[C@@H](n2cnc3c(NCc4cc(Cl)ccc4OCC4CCC4)ncnc32)[C@H](O)[C@@H]1N` [Example 5, (2S,3S,4R,5R)3-Amino-5-[6-(5-chloro-2-cyclobutylmethoxybenzylamino)-purin-9-yl]-4-hydroxytetrahydrofuran-2-carboxylic acid methylamide] yielded a melting point of 107 to 117 °C.
